From patent US20090311685A1, “NMU-GHSR1b/NTSR1 oncogenic signaling pathway as a therapeutic target for lung cancer” (Oncotherapy Science, Inc, priority 2006, published 2009)

Columns and labels:
GHSR1b/NTSR1 [1] = target: T1, GHSR1b/NTSR1 (Homo sapiens, UniProt P30989+Q92847, A200T); assay: Immunocytochemistry for internalized receptors, transfected COS-7 cells; assay type: cell-based; settings: COS-7 cells with introduced receptors, 10 μM, time-dependent
T1 construct: expressed in transfected cells; host or cells: COS-7
T1 sequence (Q92847 1-289 isoform Q92847-2, stated change not applied): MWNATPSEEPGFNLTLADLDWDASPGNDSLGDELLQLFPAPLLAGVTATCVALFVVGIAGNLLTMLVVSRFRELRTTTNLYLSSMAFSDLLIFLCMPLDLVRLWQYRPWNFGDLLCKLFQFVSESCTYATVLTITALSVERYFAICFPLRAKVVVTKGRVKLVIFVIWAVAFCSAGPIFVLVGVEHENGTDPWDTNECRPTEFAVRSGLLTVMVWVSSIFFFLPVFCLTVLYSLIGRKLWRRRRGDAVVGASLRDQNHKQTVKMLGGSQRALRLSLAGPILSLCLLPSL
T1 sequence (P30989 whole entry A200T): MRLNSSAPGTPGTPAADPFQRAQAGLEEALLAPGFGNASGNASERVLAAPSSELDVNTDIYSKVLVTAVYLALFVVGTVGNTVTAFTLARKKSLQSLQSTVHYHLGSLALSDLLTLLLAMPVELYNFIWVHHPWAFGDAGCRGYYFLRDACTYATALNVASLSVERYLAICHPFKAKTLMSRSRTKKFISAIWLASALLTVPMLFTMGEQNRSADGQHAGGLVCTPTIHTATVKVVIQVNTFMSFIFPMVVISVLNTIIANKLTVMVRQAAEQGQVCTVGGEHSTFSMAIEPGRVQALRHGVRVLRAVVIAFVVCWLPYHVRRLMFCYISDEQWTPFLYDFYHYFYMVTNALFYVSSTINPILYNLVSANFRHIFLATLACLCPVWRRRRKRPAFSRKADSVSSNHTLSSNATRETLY
Procedure: To investigate the association of NMU-25 with its candidate receptors, GHSR1b and NTSR1, the following experiments were performed. The entire coding region of each of the receptor genes was amplified by RT-PCR using primers: […]
The products were digested with EcoRI and BamHI and cloned into appropriate sites of p3XFLAG-CMV10 vector (Sigma-Aldrich Co.). COS-7 cells were transfected with FLAG-tagged GHSR1b or NTSR1 expression plasmid using FuGENE 6 Transfection Reagent as described above. The cells subjected to internalization assays were exposed to NMU-25 (10 μM) for 120 min. The cells were then fixed with 4% paraformaldehyde solution for 15 min at 37° C., and washed with PBS(−). Specimens were incubated in PBS(−) containing 0.1% Triton X-100 for 10 min and subsequently washed with PBS(−). Prior to primary antibody reaction, the cells were incubated in CAS-BLOCK (ZYMED Laboratories Inc.) for 10 min to block non-specific antibody binding. Then, the cells were incubated with both rabbit polyclonal and anti-GHSR antibody and goat polyclonal anti-NTSR1 antibody. The antibodies were stained with both anti-rabbit secondary antibody conjugated to Alexa Fluor 488 (Molecular Probes) and anti-goat secondary antibody conjugated to Alexa Fluor 594 (Molecular Probes). […] Images were viewed and assessed using confocal microscopy (TCS SP2 AOBS; Leica Microsystems).

COS-7 cells = assay: Autocrine assay: growth of cells cultured with NMU-25 (MTT, colony formation); assay type: cell-based; settings: 0.3 to 15 μM, vs BSA control, 144 hours
Procedure: To confirm the autocrine function of NMU in the growth of mammalian cells, COS-7 cells were cultured in medium containing the active form of a 25-amino-acid polypeptide of NMU (NMU-25; Sigma-Aldrich Co.) at final concentrations of 0.3 to 15 μM. The same concentrations of BSA served as controls. The peptides/proteins were added every 48 hours for 6 days. At the 144-hours time point, cell proliferation was evaluated by MTT and colony-formation assays.

GHSR1b/NTSR1 [2] = target: T2, GHSR1b/NTSR1 (Homo sapiens, UniProt P30989+Q92847); assay: Immunocytochemistry for internalized receptors, endogenous receptors in LC319 cells; assay type: cell-based
T2 construct: endogenous in cells; host or cells: LC319
T2 sequence (Q92847 1-289 isoform Q92847-2): as the sequence (Q92847 1-289 isoform Q92847-2, stated change not applied) above
T2 sequence (P30989 whole entry): as the sequence (P30989 whole entry A200T) above, with T200A counted along it

FOXM1 = assay: Induction of FOXM1 expression by NMU ligand-receptor signaling in LC319 cells; assay type: cell-based, human; settings: 25 μM, vs BSA control
Procedure: Total RNA was extracted from cultured cells and clinical tissues using Trizol reagent (Life Technologies, Inc.) according to the manufacturer's protocol. Extracted RNAs and normal human tissue poly(A) RNAs were treated with DNaseI (Nippon Gene) and were reverse-transcribed using oligo(dT)20 primer and SuperSpcript II reverse transcriptase (Invitrogen). Semiquantitative RT-PCR experiments were carried out with the following synthesized gene-specific primers and beta-actin (ACTB)-specific primers as internal control: […]

SK-MES-1 cells = assay: Measurement of cAMP levels (cAMP EIA); assay type: cell-based, human; settings: expressing either of the receptors, 3 to 50 μM
Procedure: (§1) Trypsinized LC319, REF-LC-AI, NCI-H358 and SK-MED-1 cells were seeded onto a 96-well microtiter plate (5.0×10^4 cells) and cultured in appropriate medium supplemented with 10% FCS for 24 hours, and then the medium was changed to serum free/1 mM IBMX (isobutylmethylxanthine) 20 min prior to the assay. Next, the cells were incubated with individual concentrations of peptides (NMU-25, GHRL, or NTS) for 20 min and cAMP levels of the cells were measured using cAMP EIA System (GE Healthcare Bio-sciences).

LC319 cells [3] = assay: Measurement of cAMP levels (cAMP EIA); assay type: cell-based, human; settings: for cAMP production: final concentrations of 3 to 100 μM
Procedure: as §1

NCI-H358 cells = assay: Measurement of cAMP levels (cAMP EIA); assay type: cell-based, human; settings: expressing either of the receptors, 3 to 50 μM
Procedure: as §1

RERF-LC-AI cells = assay: Measurement of cAMP levels (cAMP EIA); assay type: cell-based, human; settings: both receptors at low levels, 3 to 50 μM
Procedure: as §1

[4] = target: T3, endogenous GHSR1b and NTSR1 on LC319 cells (Homo sapiens, UniProt P30989+Q92847); assay: Ligand-receptor binding assay with Cy5-labeled NMU-25; settings: 10-fold excess unlabeled NMU-25
T3 construct: endogenous in cells; host or cells: LC319
T3 sequence (Q92847 1-289 isoform Q92847-2): as the sequence (Q92847 1-289 isoform Q92847-2, stated change not applied) above
T3 sequence (P30989 whole entry): as the sequence (P30989 whole entry A200T) above, with T200A counted along it
Procedure: (§2) To confirm the binding of NMU-25 to endogenous candidate receptors on the NSCLC cell, a receptor-ligand binding assay using LC319 and PC14 cells that express GHSR1b and NTSR1, but not NMU1R and NMU2R were performed. Specifically, trypsinized cells were seeded onto a 96-well (with black wall and clear bottom) microtiter plates 24 hours prior to the assay. The medium was removed and the cells were incubated with CyS-labeled NMU-25 peptide (1 μM) with or without the addition of 10-fold excess unlabeled NMU-25 peptide as the competitor. The plate was incubated in dark for 24 hours at 37° C. and then scanned on 8200 Cellular Detection System (Applied Biosystems) to quantify the amount of CyS fluorescence probe bound to the surface of each cell. (15) Immunocytochemistry for Internalized Receptors

[5] = target: T4, endogenous GHSR1b and NTSR1 on PC14 cells (Homo sapiens, UniProt P30989+Q92847); assay: as above; settings: 10-fold excess unlabeled NMU-25
T4 construct: endogenous in cells; host or cells: PC14
T4 sequence (Q92847 1-289 isoform Q92847-2): as the sequence (Q92847 1-289 isoform Q92847-2, stated change not applied) above
T4 sequence (P30989 whole entry): as the sequence (P30989 whole entry A200T) above, with T200A counted along it
Procedure: as §2

NMU1R-expressing cells = target: T5, NMU1R-expressing cells (Homo sapiens, UniProt Q9HB89); settings: cited from earlier work
T5 construct: host or cells: NMU1R-expressing cells
T5 sequence (Q9HB89 1-426): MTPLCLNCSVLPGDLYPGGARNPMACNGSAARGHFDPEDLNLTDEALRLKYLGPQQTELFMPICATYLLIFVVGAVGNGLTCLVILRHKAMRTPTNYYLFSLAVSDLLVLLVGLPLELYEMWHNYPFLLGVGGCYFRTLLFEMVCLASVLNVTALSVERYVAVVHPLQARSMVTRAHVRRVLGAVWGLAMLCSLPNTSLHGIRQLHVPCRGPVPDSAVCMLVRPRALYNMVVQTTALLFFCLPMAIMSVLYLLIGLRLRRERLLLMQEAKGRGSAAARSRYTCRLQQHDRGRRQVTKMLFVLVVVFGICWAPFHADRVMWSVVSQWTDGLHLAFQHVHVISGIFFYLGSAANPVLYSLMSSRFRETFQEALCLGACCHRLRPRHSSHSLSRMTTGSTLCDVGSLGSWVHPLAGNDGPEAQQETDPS

LC319 cells [6] = assay: Intracellular Ca^2+ mobilization assay (FLIPR); assay type: cell-based, human
Procedure: Trypsinized LC319 cells were seeded onto poly-D-lysine coated 384-well black-wall, clear-bottom microtiter plate (1.0×10^4 cells/ml) 24 hours prior to the assay. The cells were loaded for 1 hour with 4 μM Fluo-3-AM fluorescent indicator dye in assay buffer (Hank's balanced salt solution, 20 mM HEPES, 2.5 mM probenecid), washed three times with assay buffer, and then incubated for 10 min at room temperature before detection on fluorometric imaging plate reader (FLIPR; Molecular Devices). Fluorescence data of Ca^2+ release were collected in real-time at 1 sec intervals for the first 65 sec and at 3 sec intervals for additional 300 sec after individual concentrations of peptide (NMU-25, […], or NTS) treatment. Maximum change in fluorescence over baseline was measured to determine the response of the cells to the individual peptide stimulations.

NSCLC cells = assay: Competition of NMU-induced cAMP production; assay type: cell-based

Substance | subcellular distribution of GHSR1b and NTSR1 after stimulation (GHSR1b/NTSR1 [1]) | cell growth (MTT assay) (COS-7 cells) | cell growth (colony-formation assay) (COS-7 cells) | subcellular distribution of GHSR1b and NTSR1 after stimulation (GHSR1b/NTSR1 [2]) | expression of FOXM1 (FOXM1) | intracellular cAMP production by NMU-25 (FIG. 3D) (SK-MES-1 cells) | cAMP production (LC319 cells [3]) | intracellular cAMP production by NMU-25 (FIG. 3A) (LC319 cells [3]; high levels of both receptors, 3 to 50 μM) | intracellular cAMP production by NMU-25 (FIG. 3C) (NCI-H358 cells) | intracellular cAMP production by NMU-25 (FIG. 3B) (RERF-LC-AI cells) | binding activity of Cy5-labeled NMU-25 with unlabeled competitor [4] | binding activity of Cy5-labeled NMU-25 with unlabeled competitor [5] | displacement of 125I-labeled rat NMU-binding (NMU1R-expressing cells) | intracellular Ca^2+ flux / mobilization (LC319 cells [6]) | NMU-induced cAMP production (NSCLC cells)
NMU-25: active form of a 25-amino-acid polypeptide of NMU (Sigma-Aldrich Co.) (FRVDEEFQSPFASQSRGYFLFRPRN) | co-internalized | enhanced cell growth in a dose-dependent manner | enhanced cell growth in a dose-dependent manner | induced co-internalization | enhanced expression of FOXM1 | did not show detectable cAMP production | Enhancement of cAMP production | marked and reproducible cAMP accumulation | did not show detectable cAMP production | not significant but low cAMP production | inhibited | inhibited |  |  | 
ghrelin (GSSFLSPEHQRVQQRKESKKPPAKLQPR) [GHRL, 28-amino-acid peptide, known ligand of GHSR] |  |  |  |  |  |  | did not enhance |  |  |  |  |  | did not displace | not the treatment with GHRL caused the mobilization response | competitively inhibited
